Data taken from patent US11999727B2 (Tango Therapeutics, Inc., priority 2020, dated 2024).

Assays:
[1] = tested on: MTAP-null SW1573 cancer cell line; assay: 7-day viability assay, combination with an exemplar MTAP-null-selective PRMT5 inhibitor, SW1573; type: cell-based; details: in combination with an exemplar MTAP-null-selective PRMT5 inhibitor
Text: FIG. 3. Combination of AG-270, a MAT2A inhibitor effect is synergistic according to the HSA model, where the synergy score quantifies the excess of the highest single compound response

[2] = tested on: MTAP-null SW1573 cancer cell line; assay: Combination viability assay (CellTiter-Glo, 7 days), SW1573 MTAP-deleted cells; type: cell-based; details: 7-day viability assay, combination partner: exemplar MTAPnull-selective PRMT5 inhibitor
Method: A SW1573 MTAP-isogenic cell line pair was generated by either reconstituting MTAP gene expression, or by introducing an empty control vector, in the MTAP-deleted SW1573 parental cell line. The cell lines were maintained in DMEM+10% FBS in a humidified, 5% CO2 tissue culture incubator. All test compounds are maintained as 10 mM DMSO stocks.
On Day 0, MTAP-intact and MTAP-deleted cells are seeded in a 384-well plate, and incubated in a humidified, 5% CO2 tissue culture incubator for 16-24 hours. On Day 1, the test compounds are dispensed to wells at defined concentrations (n=2), and the volume of DMSO is normalized to highest class volume. The compound-treated plates are incubated for 7 days in a humidified, 5% CO2 tissue culture incubator.
On Day 7, the plates are removed from the tissue culture incubator and allowed to equilibrate to room temperature. Relative viability is assessed by addition of CellTiter-Glo reagent, and data are plotted as % of DMSO control for each compound in each cell line, with a 4-parameter fit non-linear regression model (GraphPad Prism). Synergy is determined according to the HSA model by the Combenefit software package (Version 2.021).

PRMT5 [3] = target: T1, PRMT5 (Homo sapiens, UniProt O14744); assay: PRMT5 biochemical IC50 assay with SAM as cofactor; details: PRMT5, SAM as cofactor; read-out: SAM IC50
T1 construct: purchased Viva (custom protein)
T1 sequence (O14744 whole entry): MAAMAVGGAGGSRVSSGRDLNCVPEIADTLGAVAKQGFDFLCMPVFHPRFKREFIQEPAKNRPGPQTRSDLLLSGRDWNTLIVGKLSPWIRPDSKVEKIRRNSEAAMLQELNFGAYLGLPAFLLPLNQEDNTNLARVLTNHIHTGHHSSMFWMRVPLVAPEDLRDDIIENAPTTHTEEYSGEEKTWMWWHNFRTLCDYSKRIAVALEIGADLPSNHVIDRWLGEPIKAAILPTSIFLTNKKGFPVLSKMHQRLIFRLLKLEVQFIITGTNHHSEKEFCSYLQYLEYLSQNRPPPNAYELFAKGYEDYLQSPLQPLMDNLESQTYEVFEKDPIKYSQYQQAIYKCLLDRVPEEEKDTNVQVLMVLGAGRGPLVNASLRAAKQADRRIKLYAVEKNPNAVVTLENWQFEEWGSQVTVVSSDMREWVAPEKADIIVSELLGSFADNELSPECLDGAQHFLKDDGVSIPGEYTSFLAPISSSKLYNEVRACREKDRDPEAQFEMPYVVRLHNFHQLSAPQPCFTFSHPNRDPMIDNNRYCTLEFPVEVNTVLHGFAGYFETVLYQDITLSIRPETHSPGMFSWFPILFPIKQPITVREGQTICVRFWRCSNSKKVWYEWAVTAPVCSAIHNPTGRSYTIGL
T1 sequence (Q9BQA1 whole entry partner): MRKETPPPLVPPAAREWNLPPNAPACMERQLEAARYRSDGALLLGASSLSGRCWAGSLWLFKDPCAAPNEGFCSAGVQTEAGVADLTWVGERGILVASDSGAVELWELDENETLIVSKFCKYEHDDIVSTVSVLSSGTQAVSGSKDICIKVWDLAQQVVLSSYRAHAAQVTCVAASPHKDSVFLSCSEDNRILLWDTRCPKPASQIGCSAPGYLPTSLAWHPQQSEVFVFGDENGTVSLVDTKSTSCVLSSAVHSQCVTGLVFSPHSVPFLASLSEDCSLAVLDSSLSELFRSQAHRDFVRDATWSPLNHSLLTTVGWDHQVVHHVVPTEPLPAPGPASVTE

PRMT5 [4] = target: T1, PRMT5; assay: PRMT5 biochemical IC50 assay with no cofactor; details: PRMT5, no cofactor; read-out: No Cofactor/ rel IC50
Text: Table 1 indicates IC50 values (μM) against PRMT5 for exemplary compounds in the presence of SAM as cofactor, with no cofactor, and with MTA as cofactor, respectively (columns 4-6). […] Ki values can be calculated from the IC50 values as described in the Examples section. As detailed in the Examples section, for the assay performed in the presence of SAM, IC50=Ki×1.5 (Ki=IC50/1.5).

PRMT5 [5] = target: T1, PRMT5; assay: PRMT5 biochemical IC50 assay with MTA as cofactor; details: PRMT5, MTA as cofactor; read-out: MTA IC50
[6] = tested on: HAP1 MTAP-intact cell line; assay: SDMA in-cell western assay, HAP1 MTAP-intact; type: cell-based; details: Homo sapiens, HAP1, SDMA in-cell western, HAP1 MTAP-intact; read-out: MTAP HAP1 intact IC50
Method in brief: (§1)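 Readout: in-cell western detection of SDMA. Cells: HAP1 expressing endogenous MTAP and an MTAP-null HAP1 counterpart. Output: IC50.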

[7] = tested on: HAP1 MTAP-deleted cell line; assay: SDMA in-cell western assay, HAP1 MTAP-deleted; type: cell-based; details: for IC50: Homo sapiens, HAP1, SDMA in-cell western, HAP1 MTAP-deleted, read-out: HAP 1 MTAP deleted IC50; for MTAP intact/deleted ratio: IC50 ratio HAP1 MTAP-intact / HAP1 MTAP-deleted, SDMA in-cell western
Method in brief: as §1

[8] = tested on: HAP1 MTAP-deleted cell line; assay: Viability assay, MTAP-deleted cell line; type: cell-based; details: Homo sapiens, HAP1, viability, HAP1 MTAP-deleted cell line; read-out: HAP1 MTAP deleted viability
Text: Table 1 additionally indicates IC50 values in a viability assay for the MTAP-deleted cell line (column 10), indicating the effect of treatment with compound on cell survival.

IC50 (PRMT5 [3]) [nM]	IC50 (PRMT5 [4]) [nM]	IC50 (PRMT5 [5]) [nM]	IC50 [6] [nM]	IC50 [7] [nM]	SMILES	Effect of the combination on cellular viability [1]	cellular viability, combination with an exemplar MTAP-null-selective PRMT5 inhibitor [2]	MTAP intact/deleted ratio [7]	IC50 [8] [nM]
–	–	–	–	–	C=CC(=O)N1CCN(c2nc(=O)n(-c3c(C)ccnc3C(C)C)c3nc(-c4c(O)cccc4F)c(F)cc23)[C@@H](C)C1 [AMG-510]	enhanced cellular viability defects	enhanced cellular viability defects	–	–
50 to 500	< 50	< 50	100 to 1000	< 100	CCc1cc(NC(=O)C(=O)N2C[C@@H](C)CC[C@@H]2c2ccc3sc(CC4(N(C)C)COC4)nc3c2)cnc1N [Compound 1399, N-(6-amino-5-ethylpyridin-3-yl)-2-((2R,5S)-2-(2-((3-(dimethylamino)oxetan-3-yl)methyl)benzo[d]thiazol-5-yl)-5-methylpiperidin-1-yl)-2-oxoacetamide]	–	–	A (an IC50 ratio greater than or equal to 10 fold)	< 1000
50 to 500	< 50	< 50	100 to 1000	< 100	CCc1cc(NC(=O)C(=O)N2C[C@@H](C)CC[C@@H]2c2ccc(N3CCCC4(CCN(C)CC4)C3)cc2)cnc1N [Compound 1401, N-(6-Amino-5-ethyl-3-pyridyl)-2-[(2R,5S)-5-methyl-2-[4-(9-methyl-2,9-diazaspiro[5.5]undecan-2-yl)phenyl]-1-piperidyl]-2-oxo-acetamide]	–	–	A (an IC50 ratio greater than or equal to 10 fold)	< 1000
50 to 500	< 50	< 50	100 to 1000	< 100	CCc1cc(NC(=O)C(=O)N2C[C@@H](C)CC[C@@H]2c2ccc(CCN(C)C)c(Cl)c2)cnc1N [Compound 1402, N-(6-amino-5-ethylpyridin-3-yl)-2-((2R,5S)-2-(3-chloro-4-(2-(dimethylamino)ethyl)phenyl)-5-methylpiperidin-1-yl)-2-oxoacetamide]	–	–	A (an IC50 ratio greater than or equal to 10 fold)	< 1000
< 50	< 50	< 50	< 100	< 100	CCc1cc(NC(=O)C(=O)N2C[C@@H](C)CC[C@@H]2c2ccc3sc(C45CC(N(C)C)(C4)C5)nc3c2)cnc1N [Compound 1404, N-(6-amino-5-ethylpyridin-3-yl)-2-((2R,5S)-2-(2-(3-(dimethylamino)bicyclo[1.1.1]pentan-1-yl)benzo[d]thiazol-5-yl)-5-methylpiperidin-1-yl)-2-oxoacetamide]	–	–	A (an IC50 ratio greater than or equal to 10 fold)	< 1000
–	–	–	–	–	O=C(Nc1ccc2[nH]nc(-c3ccncc3)c2c1)[C@@H]1CCN(CC(=O)N2CCN(c3ccc(-c4ncccn4)cc3)CC2)C1 [SCH772984]	enhanced cellular viability defect	enhanced cellular viability defects	–	–
–	–	–	–	–	CC(C)Nc1cc(-c2c[nH]c(C(=O)N[C@H](CO)c3cccc(Cl)c3)c2)c(Cl)cn1 [ulixertinib]	enhanced cellular viability defect	enhanced cellular viability defects	–	–
